This passage reports inhibition results from ChEMBL document CHEMBL3804823, “Inhibitors of secreted phospholipase A2 suppress the release of PGE2 in renal mesangial cells” (Bioorg Med Chem, 2016).

SMILES strings stand for the structures. Activity calls are given as the source filed them. The calls are words filed in the database; no cut-off is given here.

Holding throughout (format): cell-based
The species entered for experiment [1] is Rattus norvegicus. In words: Inhibition of secretory phospholipase A2 in rat renal mesangial cells assessed as suppression of IL-1beta/forskolin stimulated PGE2 formation preincubated for 20 mins prior to IL-1beta/forskolin challenge at 1 to 10 uM measured after 24 hrs by PGE2-specific ELISA.
For experiment [2], the species on record is Rattus norvegicus. Briefly: Inhibition of secretory phospholipase A2 in rat renal mesangial cells assessed as suppression of IL-1beta/forskolin stimulated PGE2 formation preincubated for 20 mins prior to IL-1beta/forskolin challenge at 1 uM measured after 24 hrs by PGE2-specific ELISA. Background: In an ELISA, binding on a coated surface is turned into a signal by an enzyme label.

The species named for experiment [3] is Rattus norvegicus. In words: Inhibition of secretory phospholipase A2 in rat renal mesangial cells assessed as suppression of IL-1beta/forskolin stimulated PGE2 formation preincubated for 20 mins prior to IL-1beta/forskolin challenge at 3 and 10 uM measured after 24 hrs by PGE2-specific ELISA.
The species entered for experiment [4] is Rattus norvegicus. In words: Inhibition of secretory phospholipase A2 in rat renal mesangial cells assessed as suppression of IL-1beta/forskolin stimulated PGE2 formation preincubated for 20 mins prior to IL-1beta/forskolin challenge at 10 uM measured after 24 hrs by PGE2-specific ELISA.

For the molecule `CC(C)[C@H](NC(=O)C(=O)CCCCc1ccccc1)C(=O)O`, the inhibition result in experiment [1] is “Active”.
`CCCC[C@H](CCC(=O)O)NC(=O)CCCCC(=O)Nc1ccccc1`: in experiment [2], the inhibition result was “inactive”. In addition, the inhibition entry in experiment [3] is “Active”.
The like results for `CC(C)[C@H](NC(=O)C(=O)c1ccc2ccccc2c1)C(=O)O` were, in that order, “inactive” and “Active”.
The corresponding values for `CCCC[C@H](CCC(=O)O)NC(=O)CCCCCOc1ccccc1` are “inactive” and “Active”.
Consider `CCCC[C@H](CCC(=O)O)NC(=O)CCCCNC(=O)c1ccc(OC)cc1`, for which the inhibition entry in experiment [1] was “Active”.
For the molecule `CCCCCCCCCCCCCCC(=O)C(=O)N[C@@H](CCCC)CCCC(=O)O`, the inhibition result in experiment [4] was “inactive”.
Consider `CCCC[C@H](CCC(=O)O)NC(=O)CCCCNC(=O)c1ccccc1`, for which the inhibition result in experiment [2] was “inactive”. Further, the inhibition entry in experiment [3] is “Active”.
Regarding `CC(C)[C@H](NC(=O)C(=O)CCCCc1ccc2ccccc2c1)C(=O)O`, in experiment [1], the inhibition result was “Active”.
On the same count and under the same terms, as for `CCCCCCCCCCCCCCCCC(=O)C(=O)N[C@H](C(=O)O)C(C)C`, the entry is “Active”; as for `CCCC[C@H](CCC(=O)O)NC(=O)CCCCCCc1ccccc1`, “Active”.
Still for that read-out and setting: as for `O=C(O)CC[C@@H](Cc1ccc(OCc2ccccc2)cc1)NC(=O)CCCCCCc1ccccc1`, the entry is “Active”.
Still for that read-out and setting: as for `CCCC[C@H](CCC(=O)O)NC(=O)CCCC(=O)NCc1ccccc1`, the entry is “Active”.
As for `CCCCCCCCCCCCCCC(=O)C(=O)NCCCC(=O)OCC`, the inhibition entry in experiment [4] was “inactive”.
On the same count and under the same terms, then `O=C(CCCCc1ccccc1)C(F)(F)C(F)(F)F`, with “inactive”.
Take `CCCCCCCCCCCCCCC(=O)C(=O)N[C@@H](CC(C)C)C(=O)O`: the inhibition result in experiment [1] is “Active”.
